# Values quoted from earlier work in PMC9337769 (Science Advances, 2022).
# Columns and labels:
# PKA-C [1] = settings: substrate binding cooperativity of ligand-bound PKA-C
# PKA-C [2] = settings: inhibition of PKA-C; literature value
Ki (PKA-C [2]),Compound,K-type cooperativity (in words) (PKA-C [1])
–,"O=S(=O)(NCCNCC=Cc1ccc(Br)cc1)c1cccc2cnccc12 [H89, N-[2-(p-bromocinnamylamino)ethyl]-5-isoquinoline sulfonamide]",negative K-type cooperativity
–,"Nc1ncnc2c1ncn2[C@@H]1O[C@H](COP(=O)(O)OP(=O)(O)CP(=O)(O)O)[C@@H](O)[C@H]1O [adenosine 5′-(β,γ-methylene) triphosphate]",lacks K-type cooperativity
~4 nM,O=C(N[C@@H]1CNCCC[C@H]1OC(=O)c1cc(O)c(C(=O)c2c(O)cccc2C(=O)O)c(O)c1)c1ccc(O)cc1 [balanol],–
